Laboratory results: paper PMC4884984, “Identification of approved and investigational drugs that inhibit hypoxia-inducible factor-1 signaling” (Oncotarget, 2016)
Like-named read-outs stand apart in the source and are kept apart here. *1 amine or outer side, *2 acyl side, *3 side chain or, on linkers, in order; H or OH if unused. Where a SMILES comes first, the peptide text is derived from it. Bridges are numbered along the chain shown (N, C = ends). Roman numbers before positions name the chains, in order. [ ]: non-standard residue; d: D form. Actinocin(9to1) = Cc1c2oc3c(C)ccc(C(=O)[*:1])c3nc-2c(C(=O)[*:2])c(N)c1=O; NMeV = CN[C@H](C(=O)O)C(C)C; Sar = CNCC(=O)O

Experiments:
Type in all cases: cell-based, human
HRE–bla ME-180 cells = assay: Viability (BLA): CellTiter-Glo counter screen in HRE–bla cells; conditions: for IC50: 1% O2, 18 h; for Viability (BLA) confirmatory IC50: Table S7, 1% O2, 18 h
Description: (§1) Cell culture of HRE–bla ME-180 cells (Cat. No. K1644, Life Technologies) and HRE–bla assay were conducted according to a reported protocol [6]. […] The fluorescence signals (460/25 nm and 530/20 nm) of CCF4 and luminescence signals of CellTiter-Glo were acquired on an Envision and a ViewLux plate readers (Perkin Elmer), respectively.

[1] = test system: hypoxia response element-beta-lactamase (HRE–bla); assay: HRE-bla reporter gene assay in ME-180 cells; conditions: Table S7, confirmatory screen; for Emax: read-out: HRE–bla confirmatory Efficacy; for IC50: read-out: HRE–bla confirmatory IC50
Description: as §1

HIF-1α–NanoLuc = HIF-1α–NanoLuc reporter gene assay (qHTS primary and confirmatory screens)
[2] = test system: HIF-1α–NanoLuc HCT116 cells; assay: Viability (Luc): CellTiter-Glo counter screen in HIF-1α–NanoLuc cells; conditions: for Viability (Luc) confirmatory IC50: Table S7, 1% O2, 18 h; for IC50: Homo sapiens, HCT-116, Table S7, confirmatory screen, 1% O2, 18 h
[3] = Homo sapiens, ME-180, Table S7, confirmatory screen
[4] = Homo sapiens, 18 h, read-out: IC50 (primary screen, HIF-1α–NanoLuc assay)
[5] = Homo sapiens, read-out: Efficacy (primary screen, HIF-1α–NanoLuc assay)
[6] = Homo sapiens, read-out: HIF-1α–NanoLuc confirmatory Efficacy
[7] = Homo sapiens, read-out: HIF-1α–NanoLuc confirmatory IC50
[8] = Homo sapiens, read-out: HIF-1α–NanoLuc primary Efficacy
[9] = Homo sapiens, Table S7, confirmatory screen, read-out: HIF-1α–NanoLuc confirmatory Efficacy
[10] = Homo sapiens, Table S7, confirmatory screen, read-out: HIF-1α–NanoLuc confirmatory IC50
[11] = Homo sapiens, Table S7, primary screen, read-out: HIF-1α–NanoLuc primary Efficacy
[12] = Homo sapiens, Table S7, primary screen, read-out: HIF-1α–NanoLuc primary IC50
[13] = Homo sapiens, Table S2, primary screen, read-out: Pathway inhibitors (primary screen) HIF-1α–NanoLuc Activity Efficacy
[14] = Homo sapiens, Table S2, primary screen, read-out: Pathway inhibitors (primary screen) HIF-1α–NanoLuc Activity IC50
[15] = Homo sapiens, Table S2, validation, read-out: Pathway inhibitors (validation) HIF-1α–NanoLuc Activity Efficacy
[16] = Homo sapiens, Table S2, validation, read-out: Pathway inhibitors (validation) HIF-1α–NanoLuc Activity IC50

| Structure (SMILES) | IC50 (HRE–bla ME-180 cells; [3]) | Emax ([1]; Homo sapiens, ME-180) | IC50 ([1]; Homo sapiens, ME-180) | Viability (Luc) confirmatory IC50 [2] | Emax (HIF-1α–NanoLuc; [9]) | IC50 (HIF-1α–NanoLuc; [10]) | Emax (HIF-1α–NanoLuc; [11]) | IC50 (HIF-1α–NanoLuc; [12]) | Viability (BLA) confirmatory IC50 (HRE–bla ME-180 cells) | further results |
| --- | --- | --- | --- | --- | --- | --- | --- | --- | --- | --- |
| C[C@@H]1C[C@@H]([C@H](O)CC2CC(=O)NC(=O)C2)C(=O)[C@@H](C)C1 [Cycloheximide] | 8.34 ± 4.61 µM | 92 ± 2% | 1.06 ± 0.12 µM | Inactive | – | – | – | – | – | Effect on HIF-1α–NanoLuc level / luciferase activity, in words (HIF-1α–NanoLuc): showed reduced protein turnover and decreased luciferase signal; IC50 (HIF-1α–NanoLuc; [4]): 0.24 µM; Emax (HIF-1α–NanoLuc; [5]): 92%; Emax (HIF-1α–NanoLuc; [6]): 104 ± 5%; IC50 (HIF-1α–NanoLuc; [7]): 0.53 µM; Emax (HIF-1α–NanoLuc; [8]): 92% |
| O=C1NCN(c2ccccc2)C12CCN(CCCOc1ccc(F)cc1)CC2 [AMI-193] | 25.8 ± 4.4 µM | – | – | Inactive | 48 ± 6% | 12.2 ± 0.83 µM | 57% | 3.35 µM | – | HRE–bla confirmatory IC50 [1]: Inactive |
| O=C(Nc1ccc(Cl)cc1)Nc1ccc(Cl)c(C(F)(F)F)c1 [Cloflucarban] | 22.9 ± 3.16 µM | 98 ± 1% | 6.8 ± 1.55 µM | Inactive | 98 ± 4% | 14.3 ± 0.93 µM | 66% | 7.5 µM | – | – |
| C=CC(=O)Nc1cc2c(Nc3ccc(F)c(Cl)c3)ncnc2cc1OCCCN1CCOCC1 [Canertinib] | 21.2 ± 2.44 µM | 37 ± 22% | 4.67 ± 7.5 µM | Inactive | 88 ± 20% | 28.8 ± 10.7 µM | 50% | – | – | Emax (HIF-1α–NanoLuc; [13]): 50%; IC50 (HIF-1α–NanoLuc; [14]): 2.37 µM; Emax (HIF-1α–NanoLuc; [15]): 88 ± 20%; IC50 (HIF-1α–NanoLuc; [16]): 24.8 ± 10.7 µM |
| CC(/C=C/C(=O)NO)=C\[C@@H](C)C(=O)c1ccc(N(C)C)cc1 [Trichostatin A] | – | – | – | Inactive | – | – | – | – | – | IC50 (HRE–bla ME-180 cells; Table S7, confirmatory screen): 9.68 ± 3.79 µM; Emax (HRE–bla ME-180 cells; Table S7, confirmatory screen, read-out: Viability (BLA) confirmatory Efficacy): 43 ± 13%; HRE–bla confirmatory Efficacy [1]: 92 ± 11%; IC50 [1]: 12.2 ± 3.9 µM; Pathway inhibitors (validation) HIF-1α–NanoLuc Activity Efficacy (HIF-1α–NanoLuc; Table S2, validation): 55 ± 4%; IC50 (HIF-1α–NanoLuc; Table S2, validation, read-out: Pathway inhibitors (validation) HIF-1α–NanoLuc Activity IC50): 0.67 ± 0.26 µM; HIF-1α–NanoLuc confirmatory Efficacy (HIF-1α–NanoLuc; Table S7, confirmatory screen): 55 ± 4% |
| CCCCC(CC)CNC(=N)NC(=N)NCCCCCCNC(=N)NC(=N)NCC(CC)CCCC (centres unmarked) [Alexidine] | 8.83 ± 1.59 µM | 87 ± 18% | 8.78 ± 1.12 µM | – | 107 ± 2% | 9.35 µM | 126% | 10.6 µM | – | IC50 [2]: 18.9 ± 3.53 µM |
| CC(=O)Oc1ccc(C(c2ccc(OC(C)=O)cc2)c2ccccn2)cc1 [Bisacodyl] | 0.69 ± 0.05 µM | 93 ± 4% | 0.84 ± 0.1 µM | Inactive | 26 ± 6% | 3.91 ± 0.7 µM | 110% | 0.84 µM | – | – |
| CCCCCCCCCCCCCC[N+](C)(C)C.[Br-] [MitMAB] | – | – | – | Inactive | – | – | – | – | – | IC50 (HRE–bla ME-180 cells; Table S7, confirmatory screen): 18.2 ± 2.51 µM; HRE–bla confirmatory Efficacy [1]: 100 ± 5%; IC50 [1]: 5.73 ± 1.88 µM; HIF-1α–NanoLuc confirmatory Efficacy (HIF-1α–NanoLuc; Table S7, confirmatory screen): 99 ± 9%; IC50 (HIF-1α–NanoLuc; Table S7, confirmatory screen, read-out: HIF-1α–NanoLuc confirmatory IC50): 15.2 ± 7.16 µM; HIF-1α–NanoLuc primary Efficacy (HIF-1α–NanoLuc; Table S7, primary screen): 129%; IC50 (HIF-1α–NanoLuc; Table S7, primary screen, read-out: HIF-1α–NanoLuc primary IC50): 2.11 µM |
| Cc1cc(C)c(/C=C2\C(=O)Nc3ccccc32)[nH]1 [SU-5416] | – | 111 ± 12% | 12.8 ± 0.84 µM | – | – | – | – | – | Inactive | – |
| CC[C@H]1CN2CCc3cc(OC)c(OC)cc3[C@@H]2C[C@@H]1C[C@H]1NCCc2cc(OC)c(OC)cc21 [Emetine] | – | 91 ± 1% | 0.29 ± 0.05 µM | – | – | – | – | – | Inactive | – |
| Cc1c2oc3c(C)ccc(C(=O)N[C@@H]4C(=O)N[C@H](C(C)C)C(=O)N5CCC[C@H]5C(=O)N(C)CC(=O)N(C)[C@@H](C(C)C)C(=O)O[C@@H]4C)c3nc-2c(C(=O)N[C@@H]2C(=O)N[C@H](C(C)C)C(=O)N3CCC[C@H]3C(=O)N(C)CC(=O)N(C)[C@@H](C(C)C)C(=O)O[C@@H]2C)c(N)c1=O [Actinomycin D] (I: T[dV]P[Sar][NMeV] / II: T[dV]P[Sar][NMeV]; ester I:1-I:C, II:1-II:C; linker I:N-II:N via Actinocin(9to1)) | 1.52 ± 2.33 µM | 78 ± 5% | 0.02 µM | Inactive | – | – | – | – | – | Effect on HIF-1α–NanoLuc level / luciferase activity, in words (HIF-1α–NanoLuc): caused reduced NanoLuc activity; IC50 (HIF-1α–NanoLuc; [4]): 0.04 µM; Emax (HIF-1α–NanoLuc; [5]): 99%; Emax (HIF-1α–NanoLuc; [6]): 87 ± 4%; IC50 (HIF-1α–NanoLuc; [7]): 0.03 ± 0.01 µM; Emax (HIF-1α–NanoLuc; [8]): 99% |
| CC(C)(C)c1nc(-c2cccc(NS(=O)(=O)c3c(F)cccc3F)c2F)c(-c2ccnc(N)n2)s1 [Dabrafenib] | – | 43 ± 1% | 6.4 ± 1.55 µM | Inactive | 26 ± 13% | – | – | – | Inactive | Emax (HIF-1α–NanoLuc; [15]): 26 ± 13%; IC50 (HIF-1α–NanoLuc; [16]): 0.47 ± 0.24 µM |
| CCOC(=O)C1(c2ccccc2)CCN(CCC(C#N)(c2ccccc2)c2ccccc2)CC1 [Diphenoxylate] | – | 60 ± 4% | 7.8 ± 0.53 µM | Inactive | – | – | – | – | Inactive | Emax (HIF-1α–NanoLuc; [6]): 104 ± 12%; IC50 (HIF-1α–NanoLuc; [7]): 13.7 ± 0.93 µM; Emax (HIF-1α–NanoLuc; [8]): 82%; IC50 (HIF-1α–NanoLuc; Homo sapiens, read-out: HIF-1α–NanoLuc primary IC50): 16.8 µM |
| O=c1c(O)c(-c2ccc(O)c(O)c2)oc2cc(O)cc(O)c12 [Quercetine] | – | 84 ± 10% | 12.8 ± 0.84 µM | – | – | – | – | – | Inactive | – |
| c1ccc(CCNc2nc(-c3ccccc3)cs2)cc1 [Fanetizole] | – | – | – | Inactive | 28 ± 5% | 16.4 ± 3.97 µM | 123% | 26.6 µM | Inactive | HRE–bla confirmatory IC50 [1]: Inactive |
| COc1ccccc1N1CCN(CC(O)COc2cccc3ccccc23)CC1 (centres unmarked) [Naftopidil] | – | – | – | – | – | – | – | – | Inactive | HRE–bla confirmatory IC50 [1]: Inactive |
| CC(=O)Oc1ccccc1C(=O)Nc1ncc([N+](=O)[O-])s1 [Nitazoxanide] | 3 ± 0.34 µM | 88 ± 1% | 3 ± 0.34 µM | – | 101 ± 14% | 17.3 ± 1.17 µM | 150% | 9.44 µM | – | IC50 [2]: 9.39 ± 1.08 µM |
| CNC(=O)c1cc(Oc2ccc(NC(=O)Nc3ccc(Cl)c(C(F)(F)F)c3)cc2)ccn1 [Sorafenib] | – | 98 ± 7% | 17.6 ± 8.6 µM | Inactive | 100 ± 6% | – | 156% | – | Inactive | IC50 (HIF-1α–NanoLuc; Homo sapiens, Table S1, primary screen, hypoxia 1% O2, 18 h, read-out: IC50 (primary screen, HIF-1α–NanoLuc assay)): 13.3 µM; Emax (HIF-1α–NanoLuc; Homo sapiens, Table S1, primary screen, read-out: Efficacy (primary screen, HIF-1α–NanoLuc assay)): 156%; Emax (HIF-1α–NanoLuc; [13]): 46%; IC50 (HIF-1α–NanoLuc; [14]): 1.5 µM; Emax (HIF-1α–NanoLuc; [15]): 100 ± 6%; IC50 (HIF-1α–NanoLuc; [16]): 23.6 ± 2.71 µM |
| CS(=O)(=O)CCNCc1ccc(-c2ccc3ncnc(Nc4ccc(OCc5cccc(F)c5)c(Cl)c4)c3c2)o1 [Lapatinib] | 20.4 ± 1.33 µM | 78 ± 6% | 11.4 ± 0.75 µM | Inactive | 50 ± 6% | – | 56% | 33.5 µM | – | Emax (HIF-1α–NanoLuc; [15]): 50 ± 6%; IC50 (HIF-1α–NanoLuc; [16]): 20.2 ± 1.31 µM |
